Measurements taken from paper PMC8080595, “Discovery of a novel RORγ antagonist with skin-restricted exposure for topical treatment of mild to moderate psoriasis” (Scientific Reports, 2021).

Experiments:
Dermal PK, miniature pig = format: in vivo, Bama miniature pig; details: for Exposure in plasma: topical
Experimental: Similar procedures were carried out for dermal PK of female SD rats and female Bama miniature pigs. Briefly, each area of topical application was 4 cm × 9 cm for SD rats and 6 cm × 6 cm for miniature pigs. After decontamination, the biopsy sections of SD rats were tape stripped for five times and those of miniature pig for twenty-five times, respectively. Blood and dorsal skin tissues of the animals were collected and analyzed for the compounds via LC/MS. The experimental protocol used in this study was approved by the Institutional Animal Care and Use Committees (IACUC). The experiments were conducted in accordance with the Guiding Principles for the Care and Use of Laboratory Animals and complied with the ARRIVE guidelines.

[1] = system: targets in the SAFETYscan47 panel; assay: SAFETYscan47 panel (DiscoverX), whole panel; details: 3 µM, duplicates, all targets
Experimental: To further profile any off-target activity, we counter-screened SHR168442 in SAFETYscan47 panel, compiled by DiscoverX based on the recommendation by major pharmaceutical companies. SHR168442 was screened at 3 µM in duplicates.

Dermal PK, BALB/c mouse = format: in vivo; details: for Exposure in plasma: 2% in Vaseline, topical
Experimental: (§1) The dermal PK studies of Compound 1 in Vaseline were performed in dorsal skin of female C57BL/6 and male BALB/c mice via topical route. The skin (1.5 cm × 2 cm) was shaved one day prior to the dosing. At tissue collecting time point, the skin surface was decontaminated (twice with hand soap, twice with water, alternatively, and dried with tissue swabs). Stratum corneum is removed with tape strips for five times. The tissues were homogenized for PK analyses of Compound 1 by LC/MS.

Oral PK in SD rats = format: in vivo; details: male, rat, plasma, 2 mg/kg oral
Experimental: Compounds were dissolved in 5% DMSO, 5% tween 80 and then added 90% saline. Male SD rats were dosed with the compound via oral (2 mg/kg or 5 mg/kg) routes, respectively after fasting overnight. Blood of the animals were collected at indicated time post dosing. Blood samples were then prepared for plasma and analyzed for the compounds using validated LC/MS assays. The experimental protocol used in this study was approved by IACUC. The experiments were conducted in accordance with the Guiding Principles for the Care and Use of Laboratory Animals and complied with the ARRIVE guidelines.

[2] = system: IL-23-induced psoriasis-like skin inflammation mice; assay: IL-23-induced psoriasis-like skin inflammation mouse model, topical treatment; format: in vivo; details: for IL17 / IL-6 / TNFα / Thickness of the back skin: day 8, Mean ± SEM, n = 10
Experimental: Psoriasis was induced by intradermal injection of IL-23 on mouse skin as described by Rizzo et al.[19]. Three days later after shaving (day 1), two injections of IL-23 (0.5 µg protein per mouse) were performed on both sides of the dorsal skin (except naïve group) for 8 days. SHR168442 in Vaseline was topically applied daily starting three day before IL-23 injections, and then twice a day starting on the day of IL-23 injections. The mice were weighed daily, and the skin were scored daily on a scale from 0 to 4. At day 8, the skin thickness was measured in live mice with a caliper and the animal was sacrificed 3 h after the first topical application. The in-life portion of the study was carried out at Nanjing University (Nanjing, China). The experimental protocol used in this study was approved by IACUC in Nanjing, China. The experiments were conducted in accordance with the Guiding Principles for the Care and Use of Laboratory Animals and complied with the ARRIVE guidelines.
IL-17A, IL-6 and TNFα were determined in plasma collected at day 8 using a cytometric bead array (BD Biosciences) following the vendor's instruction.

[3] = Liver microsomal stability, rat; format: in vitro ADME; details: liver microsomes, pH 7.4, read-out: Liver microsomal stability, t1/2, Rat
Experimental: (§2) The compound was mixed with 0.5 mg/ml human liver microsome (Thermal Fisher) at a final concentration of 1 µM in 100 mM potassium phosphate buffer, pH 7.4. The reactions were initiated by the addition of 1 mM NADPH. Samples in duplicate were incubated at 37 °C with mixing. 100 µL aliquots were transferred after 0, 5, 10, 30, 45, 60 minutes to a new tube with 300 µL acetonitrile, incubated on ice for 30 minutes, centrifuged at 1800×g at 4 °C for 10 minutes. The supernatants were transferred to glass vials subjected to LC/MS analysis. Peak areas were measured to calculate half-life according to the formula t1/2 = − 0.693/slope of linear regression analysis of ln [concentration] versus incubation time. Similar methods were applied to access mouse and rat liver microsomal stability of the compounds.

in vivo = details: female, C57BL/6, mouse
Experimental: as §1

RORγ = target: T1, RORγ (Homo sapiens, UniProt P51449); assay: RORγ luciferase reporter assay; format: cell-based; details: nuclear reporter assay, n = 3; read-out: inhibition of the RORγ transcriptional activity, average IC50
T1 sequence (P51449 260-518 limits assumed): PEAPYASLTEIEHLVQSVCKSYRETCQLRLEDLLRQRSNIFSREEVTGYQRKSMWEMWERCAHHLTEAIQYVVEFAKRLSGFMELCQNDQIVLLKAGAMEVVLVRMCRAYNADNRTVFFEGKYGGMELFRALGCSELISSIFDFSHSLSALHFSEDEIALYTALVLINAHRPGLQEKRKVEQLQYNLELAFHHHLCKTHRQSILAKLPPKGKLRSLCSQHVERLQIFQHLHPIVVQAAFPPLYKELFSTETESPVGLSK
Experimental: Ursolic acid was used as a positive control.
Cell-based luciferase reporter assays for RORα and RORγ (Indigo Biosciences) were performed according to the manufacturer’s protocol.

[4] = Liver microsomal stability, human; format: in vitro ADME; details: human, liver microsomes, pH 7.4; 1 µM compound, 0.5 mg/ml microsome, NADPH, 37 °C; read-out: Liver microsomal stability, t1/2, Human
Experimental: as §2

[5] = Liver microsomal stability, mouse; format: in vitro ADME; details: liver microsomes, pH 7.4, read-out: Liver microsomal stability, t1/2, Mouse
Experimental: as §2

CCS(=O)(=O)c1ccc([C@H](CCO)c2nc3c(Cl)c(N4CCC(F)(F)CC4)c(Cl)cc3[nH]2)cc1 [SHR168442, (S)-3-(4,6-dichloro-5-(4,4-difluoropiperidin-1-yl)-1H-benzo[d]imidazol-2-yl)-3-(4-(ethylsulfonyl)phenyl)propan-1-ol]
Exposure in plasma (Dermal PK, miniature pig; 2% in Vaseline, 3 h): blq (below limit of quantitation (< 6 ng/mL))
Exposure in plasma (Dermal PK, miniature pig; 2% in Vaseline, 6 h): blq (below limit of quantitation (< 6 ng/mL))
Exposure in plasma (Dermal PK, miniature pig; 2% in Vaseline, 24 h): blq (below limit of quantitation (< 6 ng/mL))
Exposure in plasma (Dermal PK, miniature pig; 8% in Vaseline, 3 h): blq (below limit of quantitation (< 6 ng/mL))
Exposure in plasma (Dermal PK, miniature pig; 8% in Vaseline, 6 h): blq (below limit of quantitation (< 6 ng/mL))
Exposure in plasma (Dermal PK, miniature pig; 8% in Vaseline, 24 h): blq (below limit of quantitation (< 6 ng/mL))
systemic exposures in miniature pigs (Dermal PK, miniature pig; female, Bama, pig, in vivo): < 6 ng/mL
inhibition of the targets in the SAFETYscan47 panel [1]: below 50%
Exposure in plasma (Dermal PK, BALB/c mouse; 3 h): blq (below limit of quantitation (< 6 ng/mL))
Exposure in plasma (Dermal PK, BALB/c mouse; 6 h): blq (below limit of quantitation (< 6 ng/mL))
concentration at 3 h (Dermal PK, BALB/c mouse; male, BALB/c, mouse, in vivo): 2460 ng/g
concentration at 6 h (Dermal PK, BALB/c mouse; male, BALB/c, mouse, in vivo): 4390 ng/g
AUC (Oral PK in SD rats; read-out: Exposure in SD Rat, AUC): 59 ng·h/mL
Cmax (Oral PK in SD rats; read-out: Exposure in SD Rat, Cmax): 9.5 ng/mL
half-life (Oral PK in SD rats; read-out: Exposure in SD Rat, t1/2 (converted)): 372 min
IL17 ([2]; 0.5% in Vaseline topical): 190 ± 28 fg/mL
IL-6 ([2]; 0.5% in Vaseline topical): 124 ± 32 fg/mL
TNFα ([2]; 0.5% in Vaseline topical): 5495 ± 837 fg/mL
Thickness of the back skin ([2]; 0.5% in Vaseline topical): 0.452 ± 0.020 mm
clinical scores ([2]; 0.5%, 2%, 8% in Vaseline topical, scale 0 to 4): reduce clinical scores in a dose-dependent manner
IL17 ([2]; 2% in Vaseline topical): 172 ± 38 fg/mL
IL-6 ([2]; 2% in Vaseline topical): 112 ± 43 fg/mL
TNFα ([2]; 2% in Vaseline topical): 4284 ± 804 fg/mL
Thickness of the back skin ([2]; 2% in Vaseline topical): 0.436 ± 0.019 mm
IL17 ([2]; 8% in Vaseline topical): 185 ± 35 fg/mL
IL-6 ([2]; 8% in Vaseline topical): 123 ± 37 fg/mL
TNFα ([2]; 8% in Vaseline topical): 3380 ± 491 fg/mL
Thickness of the back skin ([2]; 8% in Vaseline topical): 0.330 ± 0.015 mm
reduction of skin thickness ([2]; 8% topical, relative to vehicle and naïve group): 97%
body weight ([2]; all treatment groups): no significant body weight loss
half-life at 1 µM [3]: 8.6 min
Exposure in plasma (in vivo; 3 h): 7.0 ng/mL
Exposure in skin (in vivo; 6 h): 18,500 ng/g
concentration at 3 h (in vivo; Exposure in plasma): 8.8 ng/mL
concentration at 6 h (in vivo; Exposure in skin): 9710 ng/g
IC50 (RORγ): 15 ± 9 nM
half-life at 1 µM [4]: 2.3 min
half-life at 1 µM [5]: 6.2 min
